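1) Cells in 96-well plates. 2) Compound, 48 h, 5 concentrations. 3) Linear interpolation between surrounding doses. 4) Unreached endpoint = highest concentration. GI50: concentration for 50% inhibition of growth. TGI marks complete inhibition of growth.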
Legend:
Assay in all cases: DTP human tumour cell line panel, 48 h
[1] = test system: EKVX NSCLC
[2] = test system: HCT-15 colon
[3] = test system: HL-60(TB) leukemia
[4] = test system: K-562 leukemia
[5] = test system: LOX IMVI melanoma
[6] = test system: NCI-H226 lung
[7] = test system: NCI-H23 lung
[8] = test system: OVCAR-3 ovarian
[9] = test system: U251 CNS
[10] = test system: UACC-257 melanoma

Row | Structure (SMILES) | TGI [1] | TGI [2] | TGI [3] | TGI [4] | TGI [5] | TGI [6] | TGI [7] | TGI [8] | TGI [9] | TGI [10] | GI50 [1] | GI50 [2] | GI50 [3] | GI50 [4] | GI50 [5] | GI50 [6] | GI50 [7] | GI50 [8] | GI50 [9] | GI50 [10]
1 | COC(=O)C1=C(O)c2cc3c(cc2[C@H](c2cc(OC)c(OC)c(OC)c2)C1C(=O)OC)OCO3 (stereo not given in full) | > 100 µM | > 100 µM | > 100 µM | > 100 µM | > 100 µM | > 100 µM | > 100 µM | 92.4 µM | > 100 µM | > 100 µM |  |  |  |  |  |  |  |  |  | 
2 | CS(=O)(=O)Nc1ccc(N=Cc2c(O)[nH]c3ccccc23)cc1 | > 25 µM | > 25 µM | > 25 µM | > 25 µM | > 25 µM | > 25 µM | > 25 µM | > 25 µM | > 25 µM | > 25 µM | > 25 µM | > 25 µM | > 25 µM | > 25 µM | > 25 µM | > 25 µM | > 25 µM | > 25 µM | > 25 µM | > 25 µM
3 | CCN(CC)c1ccc(C(=N)c2ccc(N(C)C)cc2)cc1 | 16.5 µM | 7.93 µM | 15.9 µM | 12.8 µM | 7.22 µM | 5.46 µM | 3.19 µM | 4.07 µM | 7.57 µM | 5.11 µM | 2.04 µM | 0.17 µM | 0.886 µM | 0.127 µM | 1.21 µM | 1.5 µM | 0.218 µM | 0.156 µM | 1.33 µM | 1.36 µM

Source: PubChem BioAssay (NCI)
